IC50, T/C and inhibition in vivo data for 7 compounds are collected here from ChEMBL document CHEMBL4627310, “Design, synthesis and biological evaluation of 3-nitro-1,8-naphthalimides as potential antitumor agents” (Bioorg Med Chem Lett, 2020).

One assay deals with SK-OV-3. Briefly: Antiproliferative activity against human SKOV3 cells assessed as cell growth inhibition measured after 48 hrs by MTT assay. In kind it is functional, cell-based. As to conditions: SK-OV-3, 48 h.
Assay [1] concerns HepG2. Briefly: Antiproliferative activity against human HepG2 cells assessed as cell growth inhibition measured after 48 hrs by MTT assay. The class given is functional, cell-based. As to conditions: HepG2, 48 h. On the technique in general: Formazan colour is commonly taken as a measure of viable cells.
The test system of another assay is A549. Kind of assay: Antiproliferative activity against human A549 cells assessed as cell growth inhibition measured after 48 hrs by MTT assay. In kind it is functional, cell-based. As to conditions: A549, 48 h.
Assay [2] deals with T-24. Kind of assay: Antiproliferative activity against human T24 cells assessed as cell growth inhibition measured after 48 hrs by MTT assay. Conditions: T-24, 48 h. The class given is functional, cell-based.
For another assay, the system named is SMMC-7721. Briefly: Antiproliferative activity against human SMMC7721 cells assessed as cell growth inhibition measured after 48 hrs by MTT assay. The class given is functional, cell-based. As to conditions: SMMC-7721, 48 h.
Another assay deals with L02. Kind of assay: Cytotoxicity against human HL7702 cells assessed as cell growth inhibition measured after 48 hrs by MTT assay. As to conditions: L02, 48 h. In kind it is cell-based.
Assay [3] relates to HepG2. Briefly: Anticancer activity against human HepG2 cells xenografted in mouse assessed as tumor growth inhibition by measuring T/C ratio at 5 mg/kg measured at day 14 relative to control. In kind it is functional. A general note: In xenograft studies the graft and the host belong to different species.
Assay [4] relates to HepG2. Kind of assay: Anticancer activity against human HepG2 cells xenografted in mouse assessed as tumor inhibition rate at 5 mg/kg measured at day 14 relative to control. The class given is functional. As to conditions: HepG2, 336 h.
Assay [5] deals with T-24. Briefly: Anticancer activity against human T24 cells xenografted in mouse assessed as tumor growth inhibition by measuring T/C ratio at 5 mg/kg measured at day 14 relative to control. In kind it is functional.
For assay [6], the system named is T-24. Kind of assay: Anticancer activity against human T24 cells xenografted in mouse assessed as tumor inhibition rate at 5 mg/kg measured at day 14 relative to control. The class given is functional. Conditions: T-24, 336 h.

With `O=C1c2cccc3cc([N+](=O)[O-])cc(c23)C(=O)N1c1nc2ccccc2[nH]1`, the IC50 (commonly the midpoint of a concentration-inhibition curve) was 60.5 µM in the assay with SK-OV-3; 50.4 µM in the assay on HepG2 [1]; 36.9 µM in the assay on A549; 54.9 µM in the assay on T-24 [2]; 54.1 µM in the assay on SMMC-7721; above 100 µM in the assay with L02.
Turning to `O=C1c2cccc3cc([N+](=O)[O-])cc(c23)C(=O)N1Nc1ccccn1`, the IC50 with SK-OV-3 was 48.2 µM; in the assay on HepG2 [1] it was 42.7 µM; with A549, 30 µM; in the assay with T-24 [2], 57.6 µM; in the assay with SMMC-7721 it was above 100 µM; in the assay on L02, 82.4 µM.
`O=C1c2cccc3cc([N+](=O)[O-])cc(c23)C(=O)N1Nc1nc2ccccc2s1`: the IC50 was 58.8 µM in the assay with SK-OV-3; 51.3 µM in the assay with HepG2 [1]; 44.1 µM in the assay on A549; 31.2 µM with T-24 [2]; above 100 µM with SMMC-7721; 65.3 µM in the assay on L02.
`CNCCCN1C(=O)c2cccc3cc([N+](=O)[O-])cc(c23)C1=O`: the half-maximal inhibitory concentration (IC50) in the assay on SK-OV-3 turned out to be 28.2 µM; in the assay on HepG2 [1], 10.3 µM; in the assay with A549, 19.8 µM; with T-24 [2], 9.03 µM; in the assay on SMMC-7721, 26.6 µM; in the assay on L02, 14.3 µM.
Consider `O=C1c2cccc3cc([N+](=O)[O-])cc(c23)C(=O)N1Nc1ccccc1`, for which the IC50 in the assay on SK-OV-3 is 61.1 µM; in the assay with HepG2 [1], 38.7 µM; with A549 it was 32.1 µM; in the assay on T-24 [2], 15.1 µM; with SMMC-7721, above 100 µM; in the assay on L02 it was 59.1 µM.
Turning to `O=C1c2cccc3cc([N+](=O)[O-])cc(c23)C(=O)N1c1ccc2[nH]c(=O)[nH]c2c1`, the concentration for half-maximal inhibition (IC50) in the assay with SK-OV-3 is 41.4 µM; in the assay on HepG2 [1], 23.9 µM; in the assay on A549 it was 44.8 µM; in the assay with T-24 [2], 58 µM; in the assay with SMMC-7721 it was 54.7 µM; with L02, above 100 µM.
In the case of `CN(C)CCN1C(=O)c2cccc3cc([N+](=O)[O-])cc(c23)C1=O` [MITONAFIDE], the IC50 amounted to 6.26 µM in the assay on SK-OV-3; 10.9 µM with HepG2 [1]; 7.94 µM in the assay with A549; 5.01 µM with T-24 [2]; 6.94 µM with SMMC-7721; 8.51 µM with L02. In addition, the T/C (as a rule, the result in the treated group divided by that in the control group, in per cent) came to 28.8% in the assay with HepG2 [3] and 29% with T-24 [5]. For the same compound, the inhibition in vivo (commonly the change of the read-out against control, counted positive when it falls) at 5 mg/kg is 68.3% in the assay with HepG2 [4] and 67% in the assay with T-24 [6].
